Measurements taken from patent US20190136321A1, “USE OF TRANSLATIONAL PROFILING TO IDENTIFY TARGET MOLECULES FOR THERAPEUTIC TREATMENT” (The Regents of The University of California, priority 2013, published 2019).

Key:
Type in all cases: cell-based, human
PC3 cells = test: Ribosome profiling and RNA-seq of PC3 cells (translational efficiency, mRNA abundance);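 further: mRNA is RNA-seq average read density per codon over the coding sequence, translational efficiency is ribosome footprint over RNA-seq density, scaled so the median gene equals 1.0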
Procedure: Given the critical role for mTOR in prostate cancer, PC3 human prostate cancer cells, in which mTOR is constitutively hyperactivated, were used to delineate translationally controlled gene expression networks upon complete or partial mTOR inhibition. Ribosome profiling was optimized to assess quantitatively ribosome occupancy genome-wide in cancer cells.
Cells were subsequently treated with cycloheximide (100 μg ml^−1) and detergent lysis was performed in the dish. The lysate was treated with DNase and clarified, and a sample was taken for RNA-seq analysis. Lysates were subjected to ribosome footprinting by nuclease treatment. Ribosome-protected fragments were purified, and deep sequencing libraries were generated from these fragments, as well as from poly(A) mRNA purified from non-nuclease-treated lysates.
Ribosome footprint and RNA-seq sequencing reads were aligned against a library of transcripts from the UCSC Known Genes database GRCh37/hg19. The first 25 nucleotides of each read were aligned using Bowtie and this initial alignment was then extended to encompass the full fragment-derived portion of the sequencing read while excluding the linker sequence. Read density profiles were then constructed for the canonical transcript of each gene, using only reads with 0 or 1 total mismatches between the read sequence and the reference sequence, comprised of the transcript fragment followed by the linker sequence. Footprint reads were assigned to an A site nucleotide at position +15 to +17 of the alignment, based on the total fragment length; mRNA reads were assigned to the first nucleotide of the alignment. The average read density per codon was then computed for the coding sequence of each transcript, excluding the first 15 and last 5 codons, which can display atypical ribosome accumulation.
Average read density was used as a measure of mRNA abundance (RNA-seq reads) and of protein synthesis (ribosome profiling reads). For most analyses, genes were filtered to require at least 256 reads in the relevant RNA-seq samples. Translational efficiency was computed as the ratio of ribosome footprint read density to RNA-seq read density, scaled to normalize the translational efficiency of the median gene to 1.0 after excluding regulated genes (log2 fold-change ±1.5 after normalizing for the all-gene median). Changes in protein synthesis, mRNA abundance and translational efficiency were similarly computed as the ratio of read densities between different samples, normalized to give the median gene a ratio of 1.0. This normalization corrects for differences in the absolute number of sequencing reads obtained for different libraries.

4EBP1, p70S6K1/2 and AKT = test: Western blot of downstream mTOR effectors in PC3 cells; conditions: 2.5 μM PP242, 3 hrs
Procedure: Cells were washed with PBS and lysed in 1× cell lysis buffer (Cell Signaling) for 15 min at 4° C. Lysates were sonicated briefly, clarified by centrifugation for 15 min at 14, 000 rpm, and supernatants were then collected. Protein concentration in the soluble fraction was determined by BCA protein assay (Thermo Scientific). A 4-20% Bis-Tris gradient gel (Invitrogen) was used to resolve 20 μg of protein and transferred to nitrocellulose membrane. The resulting membranes were blocked for 1 hr at room temperature with Odyssey blocking solution (LI-COR) and then incubated with primary antibodies at 4° C. overnight. The following day, the blots were washed 3 times, 10 min each in TBST, and incubated with IR-conjugated goat anti-rabbit IgG secondary antibody (IRDye 800 CW at 1:20,000; LI-COR) for 1 hour at room temperature. The blots were then washed, scanned, and specific proteins were detected using the LI-COR Odyssey infrared imager. […] Actin was used as a loading amount control.

SW620 cells = test: Western blot of phosphorylation of protein translation components in SW620 cells; conditions: PP242 10 μM
Procedure: SW620 cells (ATCC, passage 12) were seeded at about 75% confluence 24 hrs prior to drug treatment. […] About 6×10^6 cells/10 cm plate and about 1×10^6 cells/well of a 6-well plate were harvested for ribosome profiling and Western blot analysis, respectively, following drug treatment.
Cells were washed with PBS and lysed in 1× cell lysis buffer (Cell Signaling) for 15 min at 4° C. Lysates were sonicated briefly, clarified by centrifugation for 15 min at 14, 000 rpm, and supernatants were then collected. Protein concentration in the soluble fraction was determined by BCA protein assay (Thermo Scientific). A 4-20% Bis-Tris gradient gel (Invitrogen) was used to resolve 20 μg of protein and transferred to nitrocellulose membrane. The resulting membranes were blocked for 1 hr at room temperature with Odyssey blocking solution (LI-COR) and then incubated with primary antibodies at 4° C. overnight. The following day, the blots were washed 3 times, 10 min each in TBST, and incubated with IR-conjugated goat anti-rabbit IgG secondary antibody (IRDye 800 CW at 1:20,000; LI-COR) for 1 hour at room temperature. The blots were then washed, scanned, and specific proteins were detected using the LI-COR Odyssey infrared imager. The following antibodies from Cell Signaling were used at 1:1000 dilution: anti-phospho-eIF4E(Ser209)(#9741), anti-phospho-rpS6(Ser235/236)(#4858), anti-phospho-ERK1/2(Thr202/Tyr204)(#4370), anti-phospho-p70S6K(Thr421/Ser424)(#9204), anti-phospho-p90RSK(Thr359/Ser363)(#9344), anti-phospho-4EBP(Ser65), anti-phospho-pAKT(Ser473), anti-phospho-eIF4E(Ser209), and anti-β-actin (#4970). Actin was used as a loading amount control.

Compound: CC(C)n1nc(-c2cc3cc(O)ccc3[nH]2)c2c(N)ncnc21 [PP242]
- TrlEff, ACD (PC3 cells; PP242 2.5 μM, 3-hour treatment): −1.02
- TrlEff, C17orf28 (PC3 cells; PP242 2.5 μM, 3-hour treatment): −0.20
- TrlEff, CCNA1 (PC3 cells; PP242 2.5 μM, 3-hour treatment): 0.66
- TrlEff, DDX51 (PC3 cells; PP242 2.5 μM, 3-hour treatment): −0.51
- TrlEff, DGCR2 (PC3 cells; PP242 2.5 μM, 3-hour treatment): 0.02
- TrlEff, EEF1A1 (PC3 cells; PP242 2.5 μM, 3-hour treatment): −3.53
- TrlEff, GTPBP3 (PC3 cells; PP242 2.5 μM, 3-hour treatment): −0.83
- TrlEff, MAPK6 (PC3 cells; PP242 2.5 μM, 3-hour treatment): −0.29
- TrlEff, MAPKAPK2 (PC3 cells; PP242 2.5 μM, 3-hour treatment): 0.92
- TrlEff, NFATC21P (PC3 cells; PP242 2.5 μM, 3-hour treatment): 0.35
- TrlEff, NR2F1 (PC3 cells; PP242 2.5 μM, 3-hour treatment): −0.09
- TrlEff, PRKD3 (PC3 cells; PP242 2.5 μM, 3-hour treatment): 0.68
- TrlEff, RBPJ (PC3 cells; PP242 2.5 μM, 3-hour treatment): −0.03
- TrlEff, RPL28 (PC3 cells; PP242 2.5 μM, 3-hour treatment): −3.48
- TrlEff, RPL39 (PC3 cells; PP242 2.5 μM, 3-hour treatment): −2.53
- TrlEff, RPS20 (PC3 cells; PP242 2.5 μM, 3-hour treatment): −2.78
- TrlEff, RPS27 (PC3 cells; PP242 2.5 μM, 3-hour treatment): −3.35
- TrlEff, SDCCAG10 (PC3 cells; PP242 2.5 μM, 3-hour treatment): 0.23
- TrlEff, UBTD2 (PC3 cells; PP242 2.5 μM, 3-hour treatment): 0.27
- TrlEff, UCHL5 (PC3 cells; PP242 2.5 μM, 3-hour treatment): 0.40
- TrlEff, VHL (PC3 cells; PP242 2.5 μM, 3-hour treatment): 0.52
- mRNA, ACD (PC3 cells; PP242 2.5 μM, 3-hour treatment): 0.20
- mRNA, ARID5B (PC3 cells; PP242 2.5 μM, 3-hour treatment): 1.93 log^2 fold change
- mRNA, BCL6 (PC3 cells; PP242 2.5 μM, 3-hour treatment): 1.59 log^2 fold change
- mRNA, BRIX1 (PC3 cells; PP242 2.5 μM, 3-hour treatment): −1.51 log^2 fold change
- mRNA, C17orf28 (PC3 cells; PP242 2.5 μM, 3-hour treatment): 0.21
- mRNA, CCNA1 (PC3 cells; PP242 2.5 μM, 3-hour treatment): −0.33
- mRNA, CTGF (PC3 cells; PP242 2.5 μM, 3-hour treatment): 1.80 log^2 fold change
- mRNA, CYR61 (PC3 cells; PP242 2.5 μM, 3-hour treatment): 1.47 log^2 fold change
- mRNA, DDX51 (PC3 cells; PP242 2.5 μM, 3-hour treatment): 0.17
- mRNA, DGCR2 (PC3 cells; PP242 2.5 μM, 3-hour treatment): 0.05
- mRNA, EEF1A1 (PC3 cells; PP242 2.5 μM, 3-hour treatment): 0.29
- mRNA, FGFBP1 (PC3 cells; PP242 2.5 μM, 3-hour treatment): −1.75 log^2 fold change
- mRNA, FOXA1 (PC3 cells; PP242 2.5 μM, 3-hour treatment): 1.45 log^2 fold change
- mRNA, GDF15 (PC3 cells; PP242 2.5 μM, 3-hour treatment): 3.02 log^2 fold change
- mRNA, GTPBP3 (PC3 cells; PP242 2.5 μM, 3-hour treatment): 0.15
- mRNA, HBP1 (PC3 cells; PP242 2.5 μM, 3-hour treatment): 1.88 log^2 fold change
- mRNA, KLF6 (PC3 cells; PP242 2.5 μM, 3-hour treatment): 1.75 log^2 fold change
- mRNA, MAPK6 (PC3 cells; PP242 2.5 μM, 3-hour treatment): 0.10
- mRNA, MAPKAPK2 (PC3 cells; PP242 2.5 μM, 3-hour treatment): −0.22
- mRNA, MT2A (PC3 cells; PP242 2.5 μM, 3-hour treatment): 1.47 log^2 fold change
- mRNA, NFATC21P (PC3 cells; PP242 2.5 μM, 3-hour treatment): 0.08
- mRNA, NR2F1 (PC3 cells; PP242 2.5 μM, 3-hour treatment): 0.87
- mRNA, PLAU (PC3 cells; PP242 2.5 μM, 3-hour treatment): 2.04 log^2 fold change
- mRNA, PRKD3 (PC3 cells; PP242 2.5 μM, 3-hour treatment): −0.46
- mRNA, RBPJ (PC3 cells; PP242 2.5 μM, 3-hour treatment): 0.17
- mRNA, RND3 (PC3 cells; PP242 2.5 μM, 3-hour treatment): 1.78 log^2 fold change
- mRNA, RPL28 (PC3 cells; PP242 2.5 μM, 3-hour treatment): 0.55
- mRNA, RPL39 (PC3 cells; PP242 2.5 μM, 3-hour treatment): −0.42
- mRNA, RPS20 (PC3 cells; PP242 2.5 μM, 3-hour treatment): −0.10
- mRNA, RPS27 (PC3 cells; PP242 2.5 μM, 3-hour treatment): 0.06
- mRNA, SDCCAG10 (PC3 cells; PP242 2.5 μM, 3-hour treatment): −0.37
- mRNA, SOX4 (PC3 cells; PP242 2.5 μM, 3-hour treatment): 1.51 log^2 fold change
- mRNA, UBTD2 (PC3 cells; PP242 2.5 μM, 3-hour treatment): 0.25
- mRNA, UCHL5 (PC3 cells; PP242 2.5 μM, 3-hour treatment): −0.51
- mRNA, VHL (PC3 cells; PP242 2.5 μM, 3-hour treatment): 0.43
- TrlEff (PC3 cells; gene ACTG1): −1.40
- mRNA (PC3 cells; gene ACTG1): 0.28
- mRNA (PC3 cells; gene AGRN): 0.50
- mRNA (PC3 cells; gene ALKBH7): 0.51
- mRNA (PC3 cells; gene AP2A1): 0.42
- mRNA (PC3 cells; gene ARD1A): 0.03
- mRNA (PC3 cells; gene ATP5G2): 0.17
- mRNA (PC3 cells; gene C21orf66): −0.31
- mRNA (PC3 cells; gene CCNI): 0.24
- mRNA (PC3 cells; gene CD44): 0.43
- mRNA (PC3 cells; gene CIRBP): 0.54
- mRNA (PC3 cells; gene CLPTM1): 0.41
- mRNA (PC3 cells; gene COL6A2): 0.57
- TrlEff (PC3 cells; gene CRTAP): −2.50
- mRNA (PC3 cells; gene CRTAP): 0.33
- mRNA (PC3 cells; gene ECSIT): 0.26
- mRNA (PC3 cells; gene EEF1A2): 0.40
- TrlEff (PC3 cells; gene EEF1B2): −1.70
- mRNA (PC3 cells; gene EEF1D): 0.35
- mRNA (PC3 cells; gene EEF1G): 0.15
- TrlEff (PC3 cells; gene EEF2): −3.60
- mRNA (PC3 cells; gene EIF3H): 0.09
- mRNA (PC3 cells; gene EIF3L): 0.21
- mRNA (PC3 cells; gene EIF4B): 0.61
- TrlEff (PC3 cells; gene EVPL): −0.79
- mRNA (PC3 cells; gene EVPL): 0.38
- mRNA (PC3 cells; gene FAM83H): 0.33
- mRNA (PC3 cells; gene FAM128B): 0.43
- mRNA (PC3 cells; gene FASN): 0.30
- TrlEff (PC3 cells; gene GAPDH): −1.90
- mRNA (PC3 cells; gene GLTSCR2): 0.70
- mRNA (PC3 cells; gene GNB2L1): 0.27
- mRNA (PC3 cells; gene HNRNPA1): 0.27
- mRNA (PC3 cells; gene HSPA8): −0.40
- mRNA (PC3 cells; gene IMPDH2): 0.21
- TrlEff (PC3 cells; gene LAMA5): −0.94
- mRNA (PC3 cells; gene LAMA5): 0.40
- mRNA (PC3 cells; gene LMF2): 0.62
- mRNA (PC3 cells; gene MTA1): 0.21
- TrlEff (PC3 cells; gene NCLN): −0.76
- mRNA (PC3 cells; gene NCLN): 0.29
- mRNA (PC3 cells; gene PABPC1): 0.16
- mRNA (PC3 cells; gene PABPC4): 0.40
- mRNA (PC3 cells; gene PACS1): 0.45
- mRNA (PC3 cells; gene PFDN5): 0.04
- mRNA (PC3 cells; gene PGLS): 0.21
- mRNA (PC3 cells; gene PGM1): 0.23
- TrlEff (PC3 cells; gene PNKP): −0.79
- mRNA (PC3 cells; gene PNKP): 0.33
- TrlEff (PC3 cells; gene PTGES2): −0.65
- mRNA (PC3 cells; gene PTGES2): 0.17
- mRNA (PC3 cells; gene RABGGTB): 0.20
- mRNA (PC3 cells; gene RPL3): 0.22
- TrlEff (PC3 cells; gene RPL4): −1.50
- mRNA (PC3 cells; gene RPL4): 0.10
- mRNA (PC3 cells; gene RPL7): 0.01
- TrlEff (PC3 cells; gene RPL7A): −2.30
- mRNA (PC3 cells; gene RPL7A): 0.15
- mRNA (PC3 cells; gene RPL9): −0.08
- mRNA (PC3 cells; gene RPL10): 0.25
- mRNA (PC3 cells; gene RPL10A): 0.14
- mRNA (PC3 cells; gene RPL11): 0.14
- mRNA (PC3 cells; gene RPL12): 0.12
- mRNA (PC3 cells; gene RPL13): 0.26
- TrlEff (PC3 cells; gene RPL13A): −3.10
- mRNA (PC3 cells; gene RPL13A): 0.30
- TrlEff (PC3 cells; gene RPL15): −1.20
- mRNA (PC3 cells; gene RPL15): 0.19
- TrlEff (PC3 cells; gene RPL17): −1.80
- mRNA (PC3 cells; gene RPL18A): 0.23
- mRNA (PC3 cells; gene RPL19): 0.11
- mRNA (PC3 cells; gene RPL21): −0.04
- mRNA (PC3 cells; gene RPL22): 0.00
- TrlEff (PC3 cells; gene RPL22L1): −1.90
- mRNA (PC3 cells; gene RPL24): 0.00
- TrlEff (PC3 cells; gene RPL26): −2.00
- mRNA (PC3 cells; gene RPL26): 0.02
- mRNA (PC3 cells; gene RPL27): −0.13
- mRNA (PC3 cells; gene RPL27A): 0.07
- mRNA (PC3 cells; gene RPL28): 0.22
- TrlEff (PC3 cells; gene RPL31): −2.10
- mRNA (PC3 cells; gene RPL31): 0.05
- mRNA (PC3 cells; gene RPL32): 0.11
- mRNA (PC3 cells; gene RPL34): 0.04
- mRNA (PC3 cells; gene RPL36A): −0.01
- mRNA (PC3 cells; gene RPL37A): 0.01
- mRNA (PC3 cells; gene RPL39): −0.15
- mRNA (PC3 cells; gene RPL41): −0.01
- mRNA (PC3 cells; gene RPLP0): 0.12
- mRNA (PC3 cells; gene RPLP1): 0.12
- TrlEff (PC3 cells; gene RPLP2): −2.10
- mRNA (PC3 cells; gene RPLP2): 0.14
- mRNA (PC3 cells; gene RPS2): 0.20
- mRNA (PC3 cells; gene RPS3): 0.24
- mRNA (PC3 cells; gene RPS3A): −0.06
- mRNA (PC3 cells; gene RPS4X): 0.12
- mRNA (PC3 cells; gene RPS5): 0.23
- mRNA (PC3 cells; gene RPS6): −0.02
- TrlEff (PC3 cells; gene RPS7): -1151
- mRNA (PC3 cells; gene RPS7): −0.04
- mRNA (PC3 cells; gene RPS9): 0.34
- TrlEff (PC3 cells; gene RPS12): −3.00
- mRNA (PC3 cells; gene RPS12): 0.04
- mRNA (PC3 cells; gene RPS13): −0.08
- TrlEff (PC3 cells; gene RPS14): −1.50
- mRNA (PC3 cells; gene RPS14): 0.16
- mRNA (PC3 cells; gene RPS15): 0.21
- mRNA (PC3 cells; gene RPS15A): 0.07
- mRNA (PC3 cells; gene RPS19): 0.23
- mRNA (PC3 cells; gene RPS20): −0.01
- mRNA (PC3 cells; gene RPS21): 0.09
- mRNA (PC3 cells; gene RPS25): −0.04
- mRNA (PC3 cells; gene RPS27): 0.07
- mRNA (PC3 cells; gene RPS27A): −0.04
- mRNA (PC3 cells; gene RPS28): 0.28
- mRNA (PC3 cells; gene RPS29): 0.11
- mRNA (PC3 cells; gene SLC19A1): 0.10
- TrlEff (PC3 cells; gene SLC25A5): −1.80
- mRNA (PC3 cells; gene TKT): 0.33
- mRNA (PC3 cells; gene TSC2): 0.21
- mRNA (PC3 cells; gene UBA52): 0.18
- mRNA (PC3 cells; gene VIM): 0.67
- TrlEff (PC3 cells; gene YB1): −2.30
- mRNA (PC3 cells; gene YB1): 0.24
- phosphorylation of S6K, S6 and 4EBP1 (4EBP1, p70S6K1/2 and AKT): substantially inhibited
- phosphorylation of 4EBP (SW620 cells): some phosphorylation of 4EBP was observed
